Source: patent US20130224151A1, “Use of FAAH Inhibitors for Treating Abdominal, Visceral and Pelvic Pain” (UNITED STATES OF AMERICA, priority 2010, published 2013)
“Also recorded” adds a separate entry of the source.

Assays:
Format in all cases: in vivo, rat
[1] = test system: Male Sprague Dawley (SD) rats; experiment: Cortagine-induced visceral hypersensitivity to colorectal distension; conditions: for antihyperalgesic effects in the cortagine model of visceral pain: summary statement referring to Example 3
Excerpt: Male Sprague Dawley (SD) rats (250-275 g, Harlan Labs, Indianapolis, Ind.) were kept under standard conditions of humidity and temperature and a 12-hour light/dark cycle (lights on 6.00 a.m.). Animals were group housed and had access to food ad libitum. Prior to the start of studies, animals were acclimatized to handling and administration of treatments (oral syringe feeding and subcutaneous injection). At the end of the experiments, animals were sacrificed by CO2 gas inhalation followed by thoracotomy or isoflurane anesthesia followed by decapitation with appropriate approved animal protocols.
On the day of the experiments, rats were injected intraperitoneally (IP) with cortagine (10 μg/kg, 0.8 ml/kg in DMSO/cremophor/isotonic saline (1:1:8 v:v:v). Cortagine, a selective corticotropin releasing factor receptor 1 (CRF1) agonist, prepared as described previously (Rivier et al. J. Med. Chem. 2007: 50:1668-1674), was stored in a powder form at −80° C. and prepared in sterile water (12.5 μg/ml) immediately before use. This dose had previously been established to show a significant increase in defecation, induction of diarrhea and increase in colonic motility, permeability and visceral pain in rats. (Larauche et al. Am. J. Physiol. Gastrointest. Liver Physiol. 2009: 297:G215-G227)
FAAH inhibitor compounds URB597 [3′-(aminocarbonyl)biphenyl-3-yl cyclohexyl carbamate], compound A and compound B were formulated as suspensions in DMSO/cremophor/isotonic saline (1:1:8 v:v:v). The concentration of the respective dosing FAAH inhibitor compound suspensions were 6 mg/ml for 30 mg/kg dose of compound A or compound B; 2 mg/ml for the 10 mg/kg dose of compound B; and 1.5 mg/ml for the 3 mg/kg dose of URB597. Compound A, compound B or vehicle treatment was administered to rats by per os (PO) route at dose-volume of 5 ml/kg. URB597 treatment was administered to rats by subcutaneous (SC) route at dose volume of 2 ml/kg. The vehicle for the PO route was DMSO/cremophor/isotonic saline (1:1:8 v:v:v). Vehicle (PO), URB597 (SC), compound A and compound B (PO) were administered to non-fasted rats, restrained by hand. The regimen of administration of URB597, compound A and compound B involved one delivery (PO or SC) performed 120 min before IP injection of cortagine.
Visceral pain was assessed using a non-invasive pressure transducer system referred to as “sensor balloon” as previously described (Larauche et al. Am. J. Physiol. Gastrointest. Liver Physiol. 2009: 297:G215-G227; Ness et al. Brain Res. 1988: 450:153-169). Briefly, in adult non-fasted SD rats, a 4-5 cm “sensor balloon” lubricated with surgical lubricant (Surgilube, Fougera, Melville) was inserted intra-anally under brief isoflurane anesthesia. The “sensor balloon” was positioned such that its distal end was 1 cm proximal to the anal verge and secured in place by tapping the balloon catheter to the tail. Rats were placed individually in Boolman's cage and allowed to recover from anesthesia and habituation. The colorectal procedure was performed using the Distender Series Ilir dual barostat (G&J Electronics Inc, Toronto, Ontario). The CRD protocol consisted of 2 CRD at 60 mmHg to unfold the balloon followed by 2 sets of CRD at 10, 20, 40 and 60 mmHg, 20 s duration, 4-min inter-stimulus interval. The intra-luminal colonic pressure (ICP) was recorded for 20 s before, during and after termination of CRD. […]

Female Wistar rats [2] = experiment: Partial restraint stress-induced hyperalgesia model; conditions: 30 mg/kg orally, 1 hr 15 min into 2 hr PRS; CRD 2 hrs later; 45 and 60 mmHg
Method: Female Wistar rats surgically prepared for electromyography as described in Example 1 were used to evaluate the effects of the FAAH inhibitors (a) compound A or (b) compound B, on colorectal sensitivity and compliance after a 2 hour partial restraint stress session.
Partial restraint stress (PRS), a relatively mild stress, was induced as previously described (Morteau et al. Dig. Dis. Sci. 1994: 39:1239-48; “Guanylate cyclase C-mediated antinociceptive effects of linaclotide in rodent models of visceral pain”, Eutamene H, Bradesi S, Larauche M, Theodorou V, Beaufrand C, Ohning G, Fioramonti J, Cohen M, Bryant A P, Kurtz C, Currie M G, Mayer E A, Bueno L, Neurogastroenterology and motility —2010 Volume: 22 p. 312-322; “Stress-induced changes in intestinal transit in the rat: a model for irritable bowel syndrome”, Williams C L, Villar R G, Peterson J M, Burks T F, Gastroenterology—1988 p. 611-21). Female rats were lightly anesthetized with diethyl ether and their shoulders, upper forelimbs and thoracic trunk were wrapped in a confining harness of paper tape to restrict, but not prevent body movements. Control sham-stress animals were anesthetized but not wrapped. […]
Rats were treated orally with compound A (30 mg/kg in DMSO/cremophor/isotonic saline (1:1:8 v:v:v), n=8), or vehicle only (DMSO/cremophor/isotonic saline (1:1:8 v:v:v), 1 mL, n=9) with or without 2 hour PRS sessions. The number of abdominal contractions was recorded by electromyography per 5-minute period (y axis) for each distension pressure of 0 mmHg, 15 mmHg, 30 mmHg, 45 mmHg and 60 mmHg (x axis); the ? symbols represent the results for the control+vehicle group (n=9); the symbols ? represent the results for the stress+vehicle group (n=9); the symbols ? represent the results for the stress+compound A group (n=8). Data are mean values with SEM.
Rats were treated orally with compound B (30 mg/kg in DMSO/cremophor/isotonic saline (1:1:8 v:v:v), n=9), or vehicle only (DMSO/cremophor/isotonic saline (1:1:8 v:v:v), 1 mL, n=9) with or without 2 hour PRS sessions. The number of abdominal contractions was recorded by electromyography per 5-minute period (y axis) for each distension pressure of 0 mmHg, 15 mmHg, 30 mmHg, 45 mmHg and 60 mmHg (x axis); the symbols ? represent the results for the control+vehicle group (n=9); the symbols ? represent the results for the stress+vehicle group (n=9); and the symbols ? represent the results for the stress+compound B group (n=9). Data are mean values with SEM.
The effect of FAAH inhibitor URB597 was tested at 3 mg/kg and 10 mg/kg in the PRS model of visceral hyperalgesia essentially as described in Examples 1 and 2. URB597 was formulated as a suspension in vehicle [DMSO/cremophor/isotonic saline (1:1:8 v:v:v)]. […]

Female Wistar rats [3] = experiment: Basal sensitivity to colorectal distension model; conditions: 30 mg/kg by oral gavage; CRD measured 2 hrs later; 0-60 mmHg
[4] = 30 mg/kg PO 2 h before cortagine
[5] = 30 mg/kg PO 2 h before cortagine 10 μg/kg IP, 40 and 60 mmHg, did not reach statistical significance
[6] = 30 mg/kg PO 2 h before cortagine, n=11
[7] = 10 mg/kg PO 2 h before cortagine, normalized to baseline VMR at 60 mmHg

Structure (SMILES): COc1ccc2c(c1)c(C(=O)C(=O)Nc1cccc(Cl)c1)c(C)n2Cc1ccc(Cl)cc1 [compound A, 2-(1-(4-chlorobenzyl)-5-methoxy-2-methyl-1H-indol-3-yl)-N-(3-chlorophenyl)-2-oxoacetamide]
- rats with increased VMR between 0 and 50% at 60 mmHg [1, 4]: 18%
- rats with increased VMR between 51 and 100% at 60 mmHg [1, 4]: 27%
- rats with increased VMR over 101% at 60 mmHg [1, 4]: 9%
- effect on cortagine-induced visceral hypersensitivity to CRD [1, 5]: trend to decrease the cortagine-induced visceral hypersensitivity; also recorded: trend to reduce cortagine-induced visceral hypersensitivity
- rats presenting an increased VMR over baseline (% hypersensitive rats) at 60 mmHg [1, 6]: 55%
- antihyperalgesic effects in the cortagine model of visceral pain [1]: exhibit antihyperalgesic effects
- abdominal contractions versus stress+vehicle control (Female Wistar rats [2]): non-significant trend towards attenuation of abdominal contractions; also recorded: exhibit antihyperalgesic effects
- basal sensitivity to colorectal distension (number of abdominal contractions per 5-minute period) (Female Wistar rats [3]): neither compound A nor compound B alters basal sensitivity

Structure (SMILES): COc1cc(NC(=O)C(=O)c2c(C)n(Cc3ccc(Cl)cc3)c3ccc(C)cc23)ccn1 [compound B, 2-(1-(4-chlorobenzyl)-2,5-dimethyl-1H-indol-3-yl)-N-(2-methoxypyridin-4-yl)-2-oxoacetamide]
- % hypersensitive rats at 40 mmHg ([1]; 10 mg/kg PO 2 h before cortagine): 36%
- effect on cortagine-induced visceral hypersensitivity to CRD ([1]; 10 mg/kg PO 2 h before cortagine 10 μg/kg IP): abolished the visceral hypersensitivity; also recorded: prevented the visceral hypersensitivity
- rats presenting a decrease in VMR compared to baseline at 60 mmHg ([1]; 10 mg/kg PO 2 h before cortagine, n=11): 64%
- rats presenting an increased VMR over baseline (% hypersensitive rats) at 60 mmHg ([1]; 10 mg/kg PO 2 h before cortagine, n=11, all increases between 0 and 50%): 36%
- VMR to CRD at 40 mmHg [1, 7]: 84.74±13.54%
- VMR to CRD at 60 mmHg [1, 7]: 87.75±10.96%
- rats with increased VMR between 0 and 50% at 60 mmHg [1, 4]: 45%
- rats with increased VMR over 101% at 60 mmHg [1, 4]: 9%
- effect on cortagine-induced visceral hypersensitivity to CRD [1, 5]: trend to dampen the development of the visceral hypersensitivity; also recorded: trend to reduce cortagine-induced visceral hypersensitivity
- rats presenting an increased VMR over baseline (% hypersensitive rats) at 60 mmHg [1, 6]: 55%
- antihyperalgesic effects in the cortagine model of visceral pain [1]: exhibit antihyperalgesic effects
- abdominal contractions versus stress+vehicle control (Female Wistar rats [2]): significantly reduced abdominal contractions; also recorded: exhibit antihyperalgesic effects
- basal sensitivity to colorectal distension (number of abdominal contractions per 5-minute period) (Female Wistar rats [3]): neither compound A nor compound B alters basal sensitivity
